Tests used:
pUC18 plasmid = experiment: Photocleavage of pUC18 plasmid DNA assayed by agarose gel electrophoresis; type: biochemical
Description: FIG. 10A-C. (a) Schematic representations of imaged agarose gel showing the photocleavage of pUC18 plasmid by [{(bpy)2Ru(dpp)}2RhCl2]^5+ in the absence of molecular oxygen. Lane 1 λ molecular weight standard, lanes 2 and 3 plasmid controls, lanes 4 and 6 plasmid incubated at 37° C. (2 h) in the presence of [(bpy)2Ru(dpp)]^2+ and [{(bpy)2Ru(dpp)}2RhCl2]^5+, respectively (1:5metal complex/base pair), lanes 5 and 7 plasmid irradiated at λ≧475 nm for 10 min in the presence of [(bpy)2Ru(dpp)]^2+ and [{(bpY)2Ru(dpp)}2RhCl2]^5+, respectively. (b) Lanes 1 and 2 plasmid controls, lanes 3 and 5 plasmid incubated at 37° C. (3 h) in the presence of [{(bpy)2Ru(bpm)}2RhCl2]^5+ and [{(bpy)2Ru(dpp)}2IrCl2]^5+, respectively, lanes 4 and 6 plasmid irradiated at λ≧475 nm for 10 min in the presence of [{(bpy)2Ru(bpm)}2RhCl2]^5+ and [{(bpy)2Ru(dpp)}2IrCl2]^5+, respectively. (c) Imaged agarose gel showing photocleavage of pBluescript plasmid in the absence of molecular oxygen by [(bpy)2Ru(dpp)RhCl2(dpp)Ru(bpy)2](PF6)5. Lane 1 is the λ molecular weight standard, lane 2 is the control linearized DNA (cut with HindIII) with no metal present, lane 3 is the control circular DNA with no metal present, lane 4 is a 1:5 metal complex/base pair mixture of the plasmid with the metal complex incubated at 37° C. (4 h), and lane 5 is a 1:5 metal complex/base pair mixture of the plasmid with the metal complex photolyzed at 520±5 nm for 4 h. All gels used 0.8% agarose, 90 mM Tris, and 90 mM boric acid buffer (pH=8.2, ionic strength=0.0043 M calculated using the Henderson-Hasselbalch equation).
(§1) A, DNA Photocleavage of pUC18 using [{(bpy)2Os(dpp)}2RhCl2](PF6)5:Lane 1 is the λ molecular weight standard, Lane 2 is a plasmid control, Lane 3 is a 1:5 metal complex/base pair mixture of the plasmid with the metal complex incubated at 37° C. for 20 minutes, Lane 4 is a 1:5 metal complex/base pair mixture of the plasmid with the metal complex photolyzed at >475 nm for 20 minutes.
C, DNA Photocleavage of pUC18 using [{(tpy)RuCl(bpm)}2RhCl2](PF6)3:Lane 1 is the λ molecular weight standard, Lane 2 is a plasmid control, Lane 3 is the plasmid alone photolyzed λ>475 nm for 15 mins, Lane 4 is a 1:5 metal complex/base pair mixture of the plasmid with the metal complex incubated at 37° C. for 15 minutes, Lane 5 is a 1:5 metal complex/base pair mixture of the plasmid with the metal complex photolyzed at >475 nm for 15 minutes.
pUC18 and pBluescript were used to probe pbotocleavage of DNA by gel electrophoresis.^14,26,41,42 pUC18 plasmid is 2686 bp (Bayou Biolabs). Irradiation used a 1000 W xenon arc lamp, a water IR filter, and a 475 nm cut off filter. Solutions were 3.5 μM in metal complex and 6.9 mM in phosphate buffer (pH=7) and allowed for ionic association of the cationic metal complexes with DNA. Dexoygenation was accomplished by bubbling with Ar for 30 min prior to the photolysis of the samples in an airtight cell blanketed with Ar.
The photocleavage of DNA by [{(bpy)2Ru(dpp)}2RhCl2]^5+ but not the monometallic ruthenium synthon illustrates the role of the supramolecular architecture, including Rh, on the desired photoreactivity. The cleavage product migrates slightly slower through the gel than native nicked plasmid, and similar results have been observed by Turro.^14 […]

pBluescript plasmid = experiment: Photocleavage of pBluescript plasmid DNA assayed by agarose gel electrophoresis; type: biochemical
Description: FIG. 10A-C. […] Lane 1 λ molecular weight standard, lanes 2 and 3 plasmid controls, lanes 4 and 6 plasmid incubated at 37° C. […] (b) Lanes 1 and 2 plasmid controls, lanes 3 and 5 plasmid incubated at 37° C. […] Lane 1 is the λ molecular weight standard, lane 2 is the control linearized DNA (cut with HindIII) with no metal present, lane 3 is the control circular DNA with no metal present, lane 4 is a 1:5 metal complex/base pair mixture of the plasmid with the metal complex incubated at 37° C. (4 h), and lane 5 is a 1:5 metal complex/base pair mixture of the plasmid with the metal complex photolyzed at 520±5 nm for 4 h. All gels used 0.8% agarose, 90 mM Tris, and 90 mM boric acid buffer (pH=8.2, ionic strength=0.0043 M calculated using the Henderson-Hasselbalch equation).
as §1, with “B,” for “A,”, “pBluescript” for “pUC18”, “[{(tpy)RuCl(dpp)}2RhCl2](PF6)3:Lane” for “[{(bpy)2Os(dpp)}2RhCl2](PF6)5:Lane”
pUC18 and pBluescript were used to probe pbotocleavage of DNA by gel electrophoresis.^14,26,41,42 pUC18 plasmid is 2686 bp (Bayou Biolabs). Irradiation used a 1000 W xenon arc lamp, a water IR filter, and a 475 nm cut off filter. […]

Vero cells = experiment: Photoinduced inhibition of Vero cell replication; type: cell-based
Description: Photoinduced inhibition of Vero cell replication by the supramolecular complex [{(bpy)2Ru(dpp)}2RhCl2](PF6)5 was investigated. All experiments were carried out with 0.5 mg/mL of [{(bpy)2Ru(dpp)}2RhCl2](PF6)5 in MEM media, and the results are shown in FIG. 11A. This cell line normally replicates once each 24 hours.
The concentration dependence of photoinduced inhibition of cell replication by the supramolecular complex [{(bpy)2Ru(dpp)}2RhCl2]Cl5 is shown in FIG. 11B. […] This is likely due to photoinduced death of the irradiated cells.

Molecule: F[P-](F)(F)(F)(F)F.F[P-](F)(F)(F)(F)F.F[P-](F)(F)(F)(F)F.F[P-](F)(F)(F)(F)F.F[P-](F)(F)(F)(F)F.[Cl-].[Cl-].[Os+2].[Os+2].[Rh+3].c1ccc(-c2ccccn2)nc1.c1ccc(-c2ccccn2)nc1.c1ccc(-c2ccccn2)nc1.c1ccc(-c2ccccn2)nc1.c1ccc(-c2nccnc2-c2ccccn2)nc1.c1ccc(-c2nccnc2-c2ccccn2)nc1 [[{(bpy)2Os(dpp)}2RhCl2](PF6)5, [(2,2′-bipyridine)2Os(2,3-bis(2-pyridyl)pyrazine)RhCl2(2,3-bis(2-pyridyl)pyrazine)Os(2,2′-bipyridine)2](PF6)5]
- DNA photocleavage (pUC18 plasmid; photolyzed at >475 nm for 20 minutes, 1:5 metal complex/base pair (FIG. 12A)): efficiently cleave DNA

Molecule: F[P-](F)(F)(F)(F)F.F[P-](F)(F)(F)(F)F.F[P-](F)(F)(F)(F)F.F[P-](F)(F)(F)(F)F.F[P-](F)(F)(F)(F)F.[Cl-].[Cl-].[Rh+3].[Ru+2].[Ru+2].c1ccc(-c2ccccn2)nc1.c1ccc(-c2ccccn2)nc1.c1ccc(-c2ccccn2)nc1.c1ccc(-c2ccccn2)nc1.c1ccc(-c2nccnc2-c2ccccn2)nc1.c1ccc(-c2nccnc2-c2ccccn2)nc1 [[{(bpy)2Ru(dpp)}2RhCl2](PF6)5]
- DNA photocleavage (pBluescript plasmid; presence of molecular oxygen): also observed in the presence of molecular oxygen
- DNA cleavage without irradiation (pUC18 plasmid; incubated at 37° C. for 2 h, 1:5 metal complex/base pair): the plasmid DNA is not cleaved
- DNA photocleavage (supercoiled to nicked form) (pUC18 plasmid; irradiated λ≧475 nm for 10 min, absence of molecular oxygen, 1:5 metal complex/base pair, 3.5 μM complex, phosphate buffer pH 7): conversion of the supercoiled DNA to the nicked form is observed
- DNA photocleavage (pUC18 plasmid; irradiated λ≧475 nm, presence of molecular oxygen): also observed in the presence of molecular oxygen
- Toxicity to cells in the dark (Vero cells; Vero cells, no illumination, 0.5 mg/mL): not toxic to cells in the dark
- Vero cell replication, complex alone (Vero cells; incubated in the dark, without illumination, MEM media (FIG. 11A)): did not impact replication
- Photoinduced inhibition of Vero cell replication (Vero cells; photolysis at λ>475 nm after incubation with 0.5 mg/mL complex in MEM media (FIG. 11A)): greatly inhibits cell replication

Molecule: F[P-](F)(F)(F)(F)F.F[P-](F)(F)(F)(F)F.F[P-](F)(F)(F)(F)F.[Cl-].[Cl-].[Cl-].[Cl-].[Rh+3].[Ru+2].[Ru+2].c1ccc(-c2cccc(-c3ccccn3)n2)nc1.c1ccc(-c2cccc(-c3ccccn3)n2)nc1.c1ccc(-c2nccnc2-c2ccccn2)nc1.c1ccc(-c2nccnc2-c2ccccn2)nc1 [[{(tpy)RuCl(dpp)}2RhCl2](PF6)3, [(2,2′:6′,2″-terpyridine) RuCl(2,3-bis(2-pyridyl)pyrazine)RhCl2(2,3-bis(2-pyridyl)pyrazine)RuCl(2,2′:6′,2″-terpyridine)](PF6)3]
- DNA photocleavage (pBluescript plasmid; photolyzed at >475 nm for 20 minutes, 1:5 metal complex/base pair (FIG. 12B)): efficiently cleave DNA

Molecule: [(2,2′:6′,2″-terpyridine)RuCl(2,2′-bipyridimidine)RhCl2(2,2′-bipyridimidine)RuCl(2,2′:6′,2″-terpyridine)](PF6)3 [[{(tpy)RuCl(bpm)}2RhCl2](PF6)3]
- DNA photocleavage (pUC18 plasmid; photolyzed at >475 nm for 15 minutes, 1:5 metal complex/base pair (FIG. 12C)): efficiently cleave DNA

Source: patent US7612057B2, “Supramolecular complexes as photoactivated DNA cleavage agents” (Virginia Tech Intellectual Properties, Inc., priority 2002, dated 2009)
